Reference: ChEMBL document CHEMBL3885861, “Open TG-GATES”

Species: Rattus norvegicus
Test: Open TG-GATES - Regimen: Daily Repeat
Assay type: toxicity, organism-based, Sprague-Dawley
Parameters: regimen Daily Repeat, gender Male, age 6 weeks
Settings: in vivo, po, route gavage; for KIDNEY_L / KIDNEY_TOTAL / KIDNEY_R: tissue Kidney; for LIVER: tissue Liver
[1] = 3 mg/kg, 72 h, dose level Middle, time 3 day
[2] = 3 mg/kg, 72 h, tissue Blood, dose level Middle, time 3 day
[3] = 3 mg/kg, 72 h, tissue Plasma, dose level Middle, time 3 day
[4] = 3 mg/kg, […], dose level Middle, time 28 day
[5] = 3 mg/kg, […], tissue Blood, dose level Middle, time 14 day
[6] = 3 mg/kg, […], tissue Blood, dose level Middle, time 28 day
[7] = 3 mg/kg, […], tissue Plasma, dose level Middle, time 14 day
[8] = 3 mg/kg, […], tissue Plasma, dose level Middle, time 28 day
[9] = 10 mg/kg, 72 h, dose level High, time 3 day
[10] = 10 mg/kg, 72 h, tissue Blood, dose level High, time 3 day
[11] = 10 mg/kg, 72 h, tissue Plasma, dose level High, time 3 day
[12] = 10 mg/kg, […], dose level High, time 14 day
[13] = 10 mg/kg, […], dose level High, time 28 day
[14] = 10 mg/kg, […], tissue Blood, dose level High, time 14 day
[15] = 10 mg/kg, […], tissue Blood, dose level High, time 28 day
[16] = 10 mg/kg, […], tissue Plasma, dose level High, time 14 day
[17] = 10 mg/kg, […], tissue Plasma, dose level High, time 28 day

Compound `O=C(O)Cc1ccccc1Nc1c(Cl)cccc1Cl` [DICLOFENAC] has a TERMINAL_BW [1] of 236.5 g, a Bas [2] of 0% and an Eos [2] of 1%. For the same compound, the Fbg [2] was 214.8 mg/dL, the Lym [2] was 79.8% and the MCH [2] was 21.5 pg. It also gave a Plat [2] of 125.2 x10_4/uL, an RBC [2] of 641.4 x10_4/ul and a WBC [2] of 112.9 x10_2/uL. It also gave a KIDNEY_L [1] of 1 g, a KIDNEY_TOTAL [1] of 2.1 g and an LIVER [1] of 11.2 g. It also gave an ALP [3] of 1064.8 IU/L, an ALT [3] of 39.2 IU/L and an AST [3] of 69.2 IU/L. It also gave a CRE [3] of 0.3 mg/dL, a DBIL [3] of 0.1 mg/dL and a GLC [3] of 194.8 mg/dL. The IP [3] was 7.1 mg/dL, the LDH [3] was 186 IU/L and the PL [3] was 170.8 mg/dL. The RALB [3] was 3.4 g/dL, the TBIL [3] was 0.2 mg/dL and the TC [3] was 84.2 mg/dL. For the same compound, the TG [3] was 122 mg/dL, the gamma-GTP [3] was 1.2 IU/L and the TERMINAL_BW (3 mg/kg, […], dose level Middle, time 14 day) was 309.6 g. For the same compound, the TERMINAL_BW [4] was 391.3 g, the Bas [5] was 0% and the Eos [5] was 1%. It also gave a Fbg [5] of 226 mg/dL, an MCH [5] of 20.8 pg and an MCHC [5] of 35.6%. The MCV [5] was 58.4 fL, the Neu [5] was 14.2% and the Plat [5] was 116.2 x10_4/uL. It also gave an RBC [5] of 705.4 x10_4/ul, a Ret [5] of 3.5% and a WBC [5] of 117.1 x10_2/uL. It also gave a Bas [6] of 0%, an Eos [6] of 1% and a Fbg [6] of 216.2 mg/dL. It also gave a Lym [6] of 83.2%, an MCH [6] of 20 pg and an MCHC [6] of 36.1%. The MCV [6] was 55.4 fL, the Plat [6] was 110.4 x10_4/uL and the RBC [6] was 789.2 x10_4/ul. For the same compound, the Ret [6] was 2.2%, the WBC [6] was 97.8 x10_2/uL and the KIDNEY_L [4] was 1.4 g. The KIDNEY_R [4] was 1.4 g, the KIDNEY_TOTAL [4] was 2.8 g and the LIVER [4] was 15.1 g. It also gave an ALP [7] of 835 IU/L, an ALT [7] of 35 IU/L and an AST [7] of 70.8 IU/L. It also gave a CRE [7] of 0.4 mg/dL, a GLC [7] of 224.2 mg/dL and an IP [7] of 7.6 mg/dL. For the same compound, the K [7] was 3.5 meq/L, the LDH [7] was 198.8 IU/L and the PL [7] was 151.2 mg/dL. The RALB [7] was 3.3 g/dL, the TBIL [7] was 0.1 mg/dL and the TC [7] was 71.8 mg/dL. For the same compound, the TG [7] was 135.8 mg/dL, the gamma-GTP [7] was 0.8 IU/L and the ALP [8] was 618.6 IU/L. The AST [8] was 61 IU/L, the CRE [8] was 0.5 mg/dL and the Ca [8] was 10.3 mg/dL. The DBIL [8] was 0.086 mg/dL, the GLC [8] was 221.2 mg/dL and the IP [8] was 7.1 mg/dL. For the same compound, the K [8] was 3.6 meq/L, the LDH [8] was 177 IU/L and the Na [8] was 140.8 meq/L. The PL [8] was 130.2 mg/dL, the RALB [8] was 3.4 g/dL and the TBIL [8] was 0.1 mg/dL. For the same compound, the TC [8] was 60 mg/dL, the TP [8] was 6.2 g/dL and the gamma-GTP [8] was 0.6 IU/L. The TERMINAL_BW [9] was 234.4 g, the Bas [10] was 0% and the Eos [10] was 1%. It also gave a Fbg [10] of 231.8 mg/dL, an MCH [10] of 22 pg and an MCV [10] of 63.1 fL. The Neu [10] was 22.4%, the Plat [10] was 128.5 x10_4/uL and the RBC [10] was 591.2 x10_4/ul. The Ret [10] was 4.9%, the WBC [10] was 114.7 x10_2/uL and the KIDNEY_L [9] was 1 g. It also gave a KIDNEY_R [9] of 1 g, a KIDNEY_TOTAL [9] of 2 g and an LIVER [9] of 11 g. For the same compound, the ALP [11] was 912.8 IU/L, the ALT [11] was 35.6 IU/L and the AST [11] was 65.2 IU/L. It also gave a CRE [11] of 0.4 mg/dL, a DBIL [11] of 0.1 mg/dL and a GLC [11] of 186.6 mg/dL. It also gave an IP [11] of 7 mg/dL, an LDH [11] of 196.8 IU/L and a Na [11] of 141.6 meq/L. The PL [11] was 156.8 mg/dL, the RALB [11] was 3.3 g/dL and the TBIL [11] was 0.2 mg/dL. The TC [11] was 77.8 mg/dL, the TG [11] was 107.6 mg/dL and the TP [11] was 5.6 g/dL. The gamma-GTP [11] was 0.4 IU/L, the TERMINAL_BW [12] was 295.1 g and the TERMINAL_BW [13] was 341.6 g. It also gave a Bas [14] of 0%, an Eos [14] of 1.4% and a Fbg [14] of 278.8 mg/dL. It also gave a Lym [14] of 64%, an MCH [14] of 21.5 pg and an MCHC [14] of 34%. For the same compound, the Mono [14] was 4.4%, the Neu [14] was 29% and the Plat [14] was 157.6 x10_4/uL. The RBC [14] was 593.2 x10_4/ul, the Ret [14] was 12% and the WBC [14] was 192.8 x10_2/uL. The Bas [15] was 0%, the Eos [15] was 1% and the Fbg [15] was 282.4 mg/dL. The Lym [15] was 61.6%, the MCH [15] was 20.3 pg and the MCHC [15] was 32.7%. It also gave a Neu [15] of 33%, a Plat [15] of 164.9 x10_4/uL and an RBC [15] of 584.4 x10_4/ul. For the same compound, the WBC [15] was 199.6 x10_2/uL, the KIDNEY_L [13] was 1.3 g and the KIDNEY_R [13] was 1.3 g. The KIDNEY_TOTAL [13] was 2.6 g, the LIVER [12] was 13 g and the ALP [16] was 513.4 IU/L. The ALT [16] was 26.4 IU/L, the AST [16] was 60.4 IU/L and the CRE [16] was 0.4 mg/dL. It also gave a GLC [16] of 191.8 mg/dL, an IP [16] of 7.6 mg/dL and a K [16] of 3.9 meq/L. For the same compound, the LDH [16] was 213 IU/L, the PL [16] was 162.6 mg/dL and the RALB [16] was 3 g/dL. The TBIL [16] was 0.1 mg/dL, the TC [16] was 78.4 mg/dL and the TG [16] was 132.2 mg/dL. It also gave a TP [16] of 5.4 g/dL, a gamma-GTP [16] of 0.8 IU/L and an ALP [17] of 538.6 IU/L. It also gave an ALT [17] of 25.6 IU/L, an AST [17] of 55.2 IU/L and a CRE [17] of 0.4 mg/dL. The Cl [17] was 104.8 meq/L, the DBIL [17] was 0.07 mg/dL and the GLC [17] was 191.4 mg/dL. For the same compound, the IP [17] was 7.1 mg/dL, the K [17] was 3.9 meq/L and the LDH [17] was 226 IU/L. The Na [17] was 140.8 meq/L, the PL [17] was 146 mg/dL and the RALB [17] was 2.7 g/dL. It also gave a TBIL [17] of 0.1 mg/dL, a TC [17] of 68.2 mg/dL and a TG [17] of 123.2 mg/dL. It also gave a TP [17] of 5.3 g/dL and a gamma-GTP [17] of 0.8 IU/L.
